The values that follow come from patent publication US4076814A, “Preventive and curative compositions against mycoplasmosis” (Sankyo Company Limited, priority 1975, dated 1978).

The structures appear in SMILES notation. Values after ≈ are worked out from the molar mass of the structure shown.

What all share (type): cell-based
The subject of one test is Mycoplasma gallisepticum. Kind of test: Antimicrobial test, conventional agar plate dilution method, Mycoplasma gallisepticum. Particulars: for MIC: Mycoplasmoides gallisepticum, read-out: Minimum Inhibitory Concentration, Mycoplasma gallisepticum. An excerpt: (§1) ANTIMICROBIAL TEST AGAINST THREE STRAINS OF MYCOPLASMA
(§2) The test was effected by a conventional agar plate dilution method using the indicated strains of mycoplasma. The dithiocarbamic acid derivatives as shown below with Compound Nos. were employed in the test.

The subject of the next test is Mycoplasma pulmonis. Kind of test: Antimicrobial test, conventional agar plate dilution method, Mycoplasma pulmonis. The following applies: for MIC: Mycoplasma, read-out: Minimum Inhibitory Concentration, Mycoplasma pulmonis.
From the text: as §1, §2

The subject of another test is Mycoplasma hyorhinis. As to the kind of experiment: Antimicrobial test, conventional agar plate dilution method, Mycoplasma hyorhinis. Particulars: for MIC: Mycoplasma, read-out: Minimum Inhibitory Concentration, Mycoplasma hyorhinis.
From the text: as §1, §2

Turning to `CCCCCCCCCCC(CSC(=S)N(C)C)C(C)=O` (stereo not drawn) [compound 152, 2-Acetyldodecyl dimethyldithiocarbamate], the MIC worked out at 0.1 µg/mL (≈ 0.302 µM) in the test on Mycoplasma gallisepticum, 0.1 µg/mL (≈ 0.302 µM) with Mycoplasma pulmonis and 0.39 µg/mL (≈ 1.18 µM) in the test with Mycoplasma hyorhinis.

As to `CC(=O)C(CSC(=S)N(C)C)Cc1ccccc1` (stereo not drawn) [compound 156, 2-Acetyl-2-benzylethyl dimethyldithiocarbamate], the MIC in the test with Mycoplasma gallisepticum, in the test with Mycoplasma pulmonis and with Mycoplasma hyorhinis was 0.2 µg/mL (≈ 0.711 µM) throughout.

Turning to `CC(=O)C(CSC(=S)N(C)C)c1ccccc1` (stereo not drawn) [compound 164, 2-Acetyl-2-phenylethyl dimethyldithiocarbamate], the MIC with Mycoplasma gallisepticum, with Mycoplasma pulmonis and in the test on Mycoplasma hyorhinis was 0.1 µg/mL (≈ 0.374 µM) throughout.

Take `Cc1cc(CSC(=S)N(C)C)cc(C)c1O` [compound 183, 4-Hydroxy-3,5-dimethylbenzyl dimethyldithiocarbamate]: the MIC with Mycoplasma gallisepticum, in the test with Mycoplasma pulmonis and in the test on Mycoplasma hyorhinis was 0.2 µg/mL (≈ 0.783 µM) throughout.

`Cc1cc(CSC(=S)N2CCCC2)cc(C)c1O` [compound 187, 4-Hydroxy-3,5-dimethylbenzyl 1-pyrrolidinecarbodithioate]: the MIC with Mycoplasma gallisepticum, in the test on Mycoplasma pulmonis and in the test on Mycoplasma hyorhinis was 0.78 µg/mL (≈ 2.77 µM) throughout.

Consider `Cc1cc(CSC(=S)N2CCCC2C(=O)OCc2ccccc2)cc(C)c1O` (stereo not drawn) [compound 191, 4-Hydroxy-3,5-dimethylbenzyl 2-benzyloxycarbonyl-1-pyrrolidinecarbodithioate], for which the MIC in the test on Mycoplasma gallisepticum worked out at 1.56 µg/mL (≈ 3.75 µM); in the test on Mycoplasma pulmonis, 1.56 µg/mL (≈ 3.75 µM); in the test on Mycoplasma hyorhinis, 3.13 µg/mL (≈ 7.53 µM).

Consider `Cc1cc(CSC(=S)N2CCCCC2)cc(C)c1O` [compound 192, 4-Hydroxy-3,5-dimethylbenzyl 1-piperidinecarbodithioate], for which the MIC in the test on Mycoplasma gallisepticum turned out to be 0.39 µg/mL (≈ 1.32 µM); in the test with Mycoplasma pulmonis, 0.39 µg/mL (≈ 1.32 µM); in the test with Mycoplasma hyorhinis, 0.1 µg/mL (≈ 0.338 µM).

Regarding `Cc1cc(CSC(=S)N2CCOCC2)cc(C)c1O` [compound 194, 4-Hydroxy-3,5-dimethylbenzyl 4-morpholinecarbodithioate], the MIC in the test with Mycoplasma gallisepticum was 1.56 µg/mL (≈ 5.24 µM); in the test on Mycoplasma pulmonis, 1.56 µg/mL (≈ 5.24 µM); with Mycoplasma hyorhinis it was 0.78 µg/mL (≈ 2.62 µM).

In the case of `Cc1cc(CSC(=S)N2CCN(C)CC2)cc(C)c1O.Cl` [compound 196, 4-Hydroxy-3,5-dimethylbenzyl 4-methyl-1-piperazinecarbodithioate hydrochloride], the figures for the MIC with Mycoplasma gallisepticum, with Mycoplasma pulmonis and in the test on Mycoplasma hyorhinis were 1.56 µg/mL, 1.56 µg/mL and 0.39 µg/mL, respectively.

In the case of `Cc1cc(C)c(O)c(CSC(=S)N(C)C)c1` [compound 197, 2-Hydroxy-3,5-dimethylbenzyl dimethyldithiocarbamate], the MIC in the test on Mycoplasma gallisepticum is 0.39 µg/mL (≈ 1.53 µM); in the test on Mycoplasma pulmonis, 0.39 µg/mL (≈ 1.53 µM); in the test with Mycoplasma hyorhinis, 0.2 µg/mL (≈ 0.783 µM).

Consider `CCN(CC)C(=S)SCc1cc(C)cc(C)c1O` [compound 198, 2-Hydroxy-3,5-dimethylbenzyl diethyldithiocarbamate], for which the MIC worked out at 0.39 µg/mL (≈ 1.38 µM) in the test on Mycoplasma gallisepticum, 0.39 µg/mL (≈ 1.38 µM) with Mycoplasma pulmonis and 0.2 µg/mL (≈ 0.706 µM) in the test on Mycoplasma hyorhinis.

With `CCN(CC)C(=S)SCc1cc(C)cc(C)c1O` [compound 199, 2-Hydroxy-3,5-dimethylbenzyl diethyldithiocarbamate], the “Minimum Inhibitory Concentration, Mycoplasma gallisepticum” value with Mycoplasma gallisepticum was found to be 0.39 µg/mL. Also, the “Minimum Inhibitory Concentration, Mycoplasma pulmonis” value in the test with Mycoplasma pulmonis came to 0.39 µg/mL. Besides, the “Minimum Inhibitory Concentration, Mycoplasma hyorhinis” value in the test on Mycoplasma hyorhinis is 0.39 µg/mL.

Consider `Cc1cc(CSC(=S)N2CCCCC2)cc(C(C)(C)C)c1O` [compound 207, 4-Hydroxy-3-t-butyl-5-methylbenzyl 1-piperidinecarbodithioate], for which the MIC with Mycoplasma gallisepticum, in the test on Mycoplasma pulmonis and with Mycoplasma hyorhinis was 0.1 µg/mL (≈ 0.296 µM) in each case.

`CC(C)c1cc(CSC(=S)N2CCOCC2)cc(C(C)C)c1O` [compound 210, 4-Hydroxy-3,5-di-isopropylbenzyl 4-morpholinecarbodithioate]: the MIC in the test with Mycoplasma gallisepticum, with Mycoplasma pulmonis and with Mycoplasma hyorhinis was 0.39 µg/mL (≈ 1.1 µM) each time.

Take `CN(C)C(=S)SCc1cc(C(C)(C)C)c(O)c(C(C)(C)C)c1` [compound 211, 4-Hydroxy-3,5-di-t-butylbenzyl dimethyldithio carbamate]: the values for the MIC with Mycoplasma gallisepticum, with Mycoplasma pulmonis and with Mycoplasma hyorhinis were 0.78 µg/mL (≈ 2.3 µM), 0.78 µg/mL (≈ 2.3 µM) and 0.39 µg/mL (≈ 1.15 µM), respectively.

In the case of `CCN(CC)C(=S)SCc1cc(C(C)(C)C)c(O)c(C(C)(C)C)c1` [compound 212, 4-Hydroxy-3,5-di-t-butylbenzyl diethyldithiocarbamate], the MIC in the test with Mycoplasma gallisepticum, with Mycoplasma pulmonis and in the test on Mycoplasma hyorhinis was 1.56 µg/mL (≈ 4.24 µM) in each case.

Consider `CC(C)(C)c1cc(CSC(=S)N2CCCCC2)cc(C(C)(C)C)c1O` [compound 218, 4-Hydroxy-3,5-di-t-butylbenzyl 1-piperidinecarbodithioate], for which the MIC with Mycoplasma gallisepticum is 0.78 µg/mL (≈ 2.05 µM); in the test with Mycoplasma pulmonis, 0.39 µg/mL (≈ 1.03 µM); with Mycoplasma hyorhinis, 0.39 µg/mL (≈ 1.03 µM).

Turning to `CC(C)(C)c1cc(CSC(=S)N2CCOCC2)cc(C(C)(C)C)c1O` [compound 219, 4-Hydroxy-3,5-di-t-butylbenzyl 4-morpholinecarbodithioate], the results for the MIC in the test on Mycoplasma gallisepticum, with Mycoplasma pulmonis and in the test with Mycoplasma hyorhinis were 0.2 µg/mL (≈ 0.524 µM), 0.2 µg/mL (≈ 0.524 µM) and 0.1 µg/mL (≈ 0.262 µM), respectively.

For the compound `CC(C)(C)c1cc(CSC(=S)N2CCCCCC2)cc(C(C)(C)C)c1O` [compound 220, 4-Hydroxy-3,5-di-t-butylbenzyl 1-hexamethyleneiminecarbodithioate], the MIC with Mycoplasma gallisepticum, in the test on Mycoplasma pulmonis and in the test with Mycoplasma hyorhinis was 0.78 µg/mL (≈ 1.98 µM) each time.

For the compound `CC(C)(C)c1cc(C(SC(=S)N2CCCCC2)c2ccccc2)cc(C(C)(C)C)c1O` (stereo not drawn) [compound 225, 4-Hydroxy-3,5-di-t-butyl-α-phenylbenzyl 1-piperidinecarbodithioate], the MIC in the test on Mycoplasma gallisepticum was 0.39 µg/mL (≈ 0.856 µM); in the test with Mycoplasma pulmonis, 0.2 µg/mL (≈ 0.439 µM); with Mycoplasma hyorhinis, 0.39 µg/mL (≈ 0.856 µM).

On to `COc1cc(CSC(=S)N2CCCCC2)cc(OC)c1O` [compound 229, 4-Hydroxy-3,5-dimethoxybenzyl 1-piperidinecarbodithioate], for which the MIC with Mycoplasma gallisepticum, with Mycoplasma pulmonis and in the test with Mycoplasma hyorhinis was 0.39 µg/mL (≈ 1.19 µM) each time.

In the case of `COc1cc(CSC(=S)N2CCOCC2)cc(OC)c1O` [compound 230, 4-Hydroxy-3,5-dimethoxybenzyl 4-morpholinecarbodithioate], the results for the MIC with Mycoplasma gallisepticum, in the test on Mycoplasma pulmonis and in the test on Mycoplasma hyorhinis were 1.56 µg/mL (≈ 4.74 µM), 1.56 µg/mL (≈ 4.74 µM) and 0.78 µg/mL (≈ 2.37 µM), respectively.

Take `CN(C)C(=S)SCc1cc(Cl)c(O)c(Cl)c1` [compound 232, 4-Hydroxy-3,5-dichlorobenzyl dimethyldithiocarbamate]: the MIC in the test on Mycoplasma gallisepticum was 0.39 µg/mL (≈ 1.32 µM); in the test on Mycoplasma pulmonis, 0.39 µg/mL (≈ 1.32 µM); with Mycoplasma hyorhinis, 0.2 µg/mL (≈ 0.675 µM).

As to `Oc1c(Cl)cc(CSC(=S)N2CCCCC2)cc1Cl` [compound 234, 4-Hydroxy-3,5-dichlorobenzyl 1-piperidinecarbodithioate], the results for the MIC with Mycoplasma gallisepticum, in the test with Mycoplasma pulmonis and with Mycoplasma hyorhinis were 3.13 µg/mL (≈ 9.31 µM), 3.13 µg/mL (≈ 9.31 µM) and 1.56 µg/mL (≈ 4.64 µM), respectively.

With `Oc1c(Cl)cc(CSC(=S)N2CCOCC2)cc1Cl` [compound 235, 4-Hydroxy-3,5-dichlorobenzyl 4-morpholinecarbodithioate], the MIC with Mycoplasma gallisepticum, in the test with Mycoplasma pulmonis and with Mycoplasma hyorhinis was 1.56 µg/mL (≈ 4.61 µM) in each case.

For `Cc1cc(CSC(=S)N(C)C)cc(CN(C)C)c1O` [compound 236, 4-Hydroxy-3-dimethylaminomethyl-5-methylbenzyl dimethyldithiocarbamate], the MIC in the test with Mycoplasma gallisepticum, in the test on Mycoplasma pulmonis and with Mycoplasma hyorhinis was 0.2 µg/mL (≈ 0.67 µM) in each case.

Take `CCCc1cc(CSC(=S)N(C)C)cc(CN(C)C)c1O.Cl` [compound 238, 4-Hydroxy-3-dimethylaminomethyl5-n-propylbenzyl dimethyldithiocarbamate hydrochloride]: the MIC with Mycoplasma gallisepticum, in the test with Mycoplasma pulmonis and in the test with Mycoplasma hyorhinis was 0.2 µg/mL throughout.

As for `CCC(C)c1cc(CSC(=S)N(C)C)cc(CN(C)C)c1O.Cl` (stereo not drawn) [compound 240, 4-Hydroxy-3-dimethylaminomethyl-5-sec-butylbenzyl dimethyldithiocarbamate hydrochloride], the values for the MIC in the test with Mycoplasma gallisepticum, with Mycoplasma pulmonis and in the test with Mycoplasma hyorhinis were 0.39 µg/mL, 0.39 µg/mL and 0.2 µg/mL, respectively.

With `CCN(CC)C(=S)SCc1cc(CN(C)C)c(O)c(C(C)(C)C)c1` [compound 241, 4-Hydroxy-3-dimethylaminomethyl-5-t-butylbenzyl diethyldithiocarbamate], the MIC in the test on Mycoplasma gallisepticum came out at 0.78 µg/mL (≈ 2.12 µM); in the test with Mycoplasma pulmonis, 0.39 µg/mL (≈ 1.06 µM); in the test on Mycoplasma hyorhinis it was 0.39 µg/mL (≈ 1.06 µM).

For `CCN(CC)C(=S)SCc1cc(CO)cc(OC)c1O` [compound 242, 2-Hydroxy-3-methoxy-5-hydroxymethylbenzyl diethyldithiocarbamate], the MIC in the test on Mycoplasma gallisepticum, with Mycoplasma pulmonis and in the test with Mycoplasma hyorhinis was 0.1 µg/mL (≈ 0.317 µM) throughout.

Turning to `CC=Cc1cc(CSC(=S)N(CC)CC)c(O)c(OC)c1` [compound 246, 2-Hydroxy-3-methoxy-5-propenylbenzyl diethyldithiocarbamate], the MIC was 0.39 µg/mL (≈ 1.2 µM) in the test on Mycoplasma gallisepticum, 0.2 µg/mL (≈ 0.614 µM) with Mycoplasma pulmonis and 0.39 µg/mL (≈ 1.2 µM) with Mycoplasma hyorhinis.

Regarding `Cc1cc(O)c(CSC(=S)N(C)C)cc1CSC(=S)N(C)C` [compound 247, 4-Hydroxy-5-dimethylthiocarbamoylthiomethyl-2-methylbenzyl dimethyldithiocarbamate], the MIC came to 0.78 µg/mL (≈ 2.08 µM) with Mycoplasma gallisepticum, 0.78 µg/mL (≈ 2.08 µM) in the test on Mycoplasma pulmonis and 0.39 µg/mL (≈ 1.04 µM) with Mycoplasma hyorhinis.

Turning to `CCCc1cc(CSC(=S)N(C)C)cc(CSC(=S)N(C)C)c1O` [compound 248, 4-Hydroxy-5-dimethylthiocarbamoylthiomethyl-3-n-propylbenzyl dimethyldithiocarbamate], the MIC in the test on Mycoplasma gallisepticum was 0.1 µg/mL (≈ 0.248 µM); in the test on Mycoplasma pulmonis, 0.1 µg/mL (≈ 0.248 µM); in the test with Mycoplasma hyorhinis it was 0.2 µg/mL (≈ 0.497 µM).

`CCC(C)c1cc(CSC(=S)N(C)C)cc(CSC(=S)N(C)C)c1O` (stereo not drawn) [compound 250, 4-Hydroxy-5-dimethylthiocarbamoylthiomethyl-3-sec-butylbenzyl dimethyldithiocarbamate]: the MIC in the test with Mycoplasma gallisepticum, in the test with Mycoplasma pulmonis and in the test on Mycoplasma hyorhinis was 0.2 µg/mL (≈ 0.48 µM) throughout.
